# Experiments:
# [1] = test system: human peripheral blood monocytes; assay: IL-6 production inhibitory effect of BAFF from human peripheral blood monocytes (Example 3); format: cell-based
# Protocol: Monocytes were isolated from normal healthy human peripheral blood using CD14-microbeads. In the presence of 2 μg/mL recombinant human BAFF (same as Example 2) and Compound A (2 μM and 10 μM) (entire culture scale of 24-well culture plates at 2 mL/well), 5×10^5 of the isolated monocytes were cultured using a 10% FBS/RPMI 1640 culture medium in a 5% CO2 environment at 37° C. for four days. Four days later, the supernatant was removed to determine the IL-6 content in the culture supernatant by IL-6 specific ELISA. For comparison, experiments using BIK-13 instead of Compound A were also performed.
# [2] = test system: peripheral blood mononuclear cells (PBMC); assay: IgG production by B cell-stimulation culture using peripheral blood mononuclear cells (Example 5); format: cell-based, human
# Protocol: Peripheral blood mononuclear cells were isolated from normal healthy human peripheral blood by density gradient centrifugation using Ficoll. In the presence of 5 μg/mL anti-human IgM antibody, 1 μg/mL anti-human CD40 antibody, 30 ng/mL recombinant human IL-21, 30 ng/mL recombinant human BAFF, and Compound A (0.4 μM, 2 μM, and 10 μM), 2×10^5 peripheral blood mononuclear cells were cultured using a 10% FBS/RPMI 1640 culture medium in a 5% CO2 environment at 37° C. for seven days. The cells were cultured in 96-well round-bottom culture plates in a scale of 200 μL per well. Seven days later, the supernatant was removed and the culture supernatant was collected to determine the IgG content in the culture supernatant by ELISA. As controls, experiments in the case of not adding Compound A and the case of adding neither Compound A nor BAFF were also performed. Moreover, for comparison with the effects of Compound A, experiments using BIK-13 instead of Compound A were also performed.
# MRL/lpr mice = assay: Anti-dsDNA antibody titer in blood of MRL/lpr mice (Example 6); format: in vivo
# From the text: MRL/lpr mice (purchased from Charles River Laboratories Japan, Inc.) were used as disease model (may also be referred to as collagen disease model or systemic lupus erythematosus (SLE) model) mice developing inflammatory diseases at a high rate and developing multiple autoimmune phenomena. Approximately 80% or more of the MRL/lpr mice develop systemic vasculitis around four to five months old. In addition, it is also known that the same individual spontaneously develops, not only vasculitis, but also glomerulonephritis, arthritis, sialadenitis, and the like (J. Jpn. Coll. Angiol., 2009, 49 11-16.).
# Experiments were performed as follows: • Group 1: administered a physiological saline solution only (saline); • Group 2: administered 0.04 mg/kg of Compound A; • Group 3: administered 0.2 mg/kg of Compound A; • Group 4: administered 1 mg/kg of Compound A. […]
# The blood was collected over time (0 w, 4 w, 8 w, 12 w, and 16 w) measure the anti-dsDNA antibody titers in the blood. The anti-dsDNA antibody is a kind of antinuclear antibody and is known to be frequently and specifically detected in the serum of SLE patients.
# The anti-dsDNA antibody titers in the blood were measured with “LBIS™ anti-dsDNA mice ELISA KIT” (AKRDO-061, produced by Fujifilm Corp.). […]
# NZB/WF1 mice [3] = assay: Anti-dsDNA antibody titer in blood of NZB/WF1 mice (Example 7); format: in vivo
# Protocol: NZB/WF1 mice (purchased from Japan SLC, Inc.) were used as disease model (may also be referred to as systemic lupus erythematosus (SLE) model) mice producing anti-dsDNA antibodies with age and spontaneously developing glomerulonephritis. Except for the following exceptions, present Example was performed by the same materials and method as Example 6 above.
# Experiments were performed as follows: • Group 1: administered a physiological saline solution only (saline); • Group 2: administered 0.2 mg/kg of Compound A; • Group 3: administered 1 mg/kg of Compound A.
# NZB/WF1 mice (female) of 20 weeks old were classified into the above three groups (five individuals per group) and predetermined administration was initiated (0 w) on the individuals in each group.
# The administration was performed five times a week for 20 weeks by intravenous injection.
# NZB/WF1 mice [4] = assay: Urine protein in NZB/WF1 mice (Example 8); format: in vivo
# Protocol: Present Example was performed simultaneously with Example 7 using NZB/WF1 mice. Except for the following exceptions, present Example was performed by the same materials and method as Example 7 above.
# The urine was collected over time (0 w, 4 w, 7 w, 12 w, 16 w, and 18 w) to evaluate the protein content […] in the urine using urine protein test strips. It is known that SLE patients are prone to develop lupus nephritis and a higher concentration of protein is contained in the urine of incident patients than the urine of normal healthy individuals.
# The level of the protein content in the mouse urine was numerically expressed using Albustix (Ames urine protein test strips, produced by Siemens Healthcare K.K.) as urine protein test strips based on the following criteria. • negative: 0 • ±: 0.5 • +: 1 • 2+: 2 • 3+: 3
compound,measurement,setting,value
"Cc1c(C)n(Cc2ccccc2)c2ncnc(OC3CCN(CC(=O)NCC4CC4)CC3)c12 [Compound A, 2-[4-{(7-benzyl-5,6-dimethyl-7H-pyrrolo[2,3-d]pyrimidin-4-yl)oxy}piperidin-1-yl]-N(cyclopropylmethyl)acetamide]",IL-6 production inhibitory effect compared with the control,"[1]; 2 μM and 10 μM with 2 μg/mL human BAFF, 4 days",significant (p<0.001) IL-6 production inhibitory effects
same,relative amount of IL-6 production,"[1]; 2 μM, control = 100%",66.4±0.283%
same,"IL-6 production inhibitory effect, times stronger than BIK-13",[1]; monocytes of normal healthy individuals,at least 5 times
same,IgG antibody production inhibitory effect compared with the control,"[2]; 0.4 μM, 2 μM and 10 μM, anti-IgM, anti-CD40, IL-21 and BAFF stimuli, 7 days","significant (respectively, p<0.05, p<0.01, and p<0.001) IgG antibody production inhibitory effects"
same,cancellation of the IgG antibody production enhancement by BAFF,"[2]; 10 μM, compared with adding none",almost completely cancelled
same,"inhibitory effect on IgG antibody production, times stronger than BIK-13",[2]; PBMC system of Example 5,approximately 25 times
same,anti-dsDNA antibody titer inhibitory effect compared with saline,"MRL/lpr mice; 0.2 mg/kg and 1 mg/kg, 16th week","significant (respectively, p<0.05) anti-dsDNA antibody titer inhibitory effects"
same,anti-dsDNA antibody titers in the blood compared with saline,"MRL/lpr mice; 0.04, 0.2 and 1 mg/kg, intravenous injection five times a week, 8 w or later",tendency of decrease
same,anti-dsDNA antibody titer inhibitory effect compared with saline,"NZB/WF1 mice [3]; 1 mg/kg, 12th and 16th weeks","significant (respectively, p<0.05) anti-dsDNA antibody titer inhibitory effects"
same,anti-dsDNA antibody titers in the blood compared with saline,"NZB/WF1 mice [3]; 0.2 and 1 mg/kg, intravenous injection five times a week, 12 w or later",tendency of decrease
same,protein content in the urine compared with saline,"NZB/WF1 mice [4]; 0.2 and 1 mg/kg, 12 w or later, urine protein test strips",tendency of decrease
same,inhibitory effect on the protein content in the urine compared with saline,NZB/WF1 mice [4]; 12th week (1 mg/kg) and 18th week (0.2 mg/kg and 1 mg/kg),"significant (respectively, p<0.05) inhibitory effects"

# Source: US12115161B2, “Prophylactic and/or therapeutic agent for inflammatory diseases which contains pyrrolopyrimidine compound as active ingredient” (KEIO UNIVERSITY, priority 2018, dated 2024)
